± gives the uncertainty stated by the source.
Experiment: xn = mol fraction of the nth substance listed
Conditions: for electrical conductivity: 101 kPa; for viscosity: 100 kPa

CCCC[n+]1ccn(C)c1.N[C@@H](CC(=O)O)C(=O)[O-] + CO
Conditions	electrical conductivity [S/m]
298.15 K, x2 = 0.2999	0.101 ± 0.016
298.15 K, x2 = 0.5015	0.161 ± 0.026
298.15 K, x2 = 0.7957	0.64 ± 0.1
298.15 K, x2 = 0.8988	1.13 ± 0.18
303.15 K, x2 = 0.1999	0.108 ± 0.017
303.15 K, x2 = 0.5949	0.241 ± 0.039
303.15 K, x2 = 0.6969	0.377 ± 0.06
308.15 K, x2 = 0.398	0.218 ± 0.035
308.15 K, x2 = 0.6969	0.496 ± 0.079
308.15 K, x2 = 0.9214	1.39 ± 0.22
308.15 K, x2 = 0.975	1.36 ± 0.22
318.15 K, x2 = 0.1999	0.212 ± 0.034
318.15 K, x2 = 0.5015	0.378 ± 0.06
318.15 K, x2 = 0.7957	0.98 ± 0.16
318.15 K, x2 = 0.8988	1.42 ± 0.23

Cc1n(S(=O)(=O)O)cc[n+]1S(=O)(=O)O.O=C([O-])C(F)(F)F + CO
Conditions	electrical conductivity [S/m]
298.15 K, x1 = 0.0104	1.52 ± 0.03

O=C([O-])C(F)(F)F.O=S(=O)(O)n1cc[n+](S(=O)(=O)O)c1 + CO
electrical conductivity [S/m]
Conditions	288.15 K	298.15 K	308.15 K	313.15 K	333.15 K
x1 = 0.0052	–	1.85 ± 0.037	–	–	–
x1 = 0.02551	4.64 ± 0.093	–	3.89 ± 0.078	3.76 ± 0.075	3.25 ± 0.065

CCCCCCCCCCCCCC[P+](CCCCCC)(CCCCCC)CCCCCC.Cc1ncc([N+](=O)[O-])[n-]1 + COCCOCCOCCOCCOC
viscosity [mPa·s]
Conditions	278.15 K	283.15 K	288.15 K	293.15 K	298.15 K	303.15 K	308.15 K	313.15 K	318.15 K	323.15 K
x2 = 0.151	2535 ± 200	1685 ± 120	1140 ± 74	791 ± 46	563 ± 29	411 ± 18	306 ± 12	232 ± 8	179 ± 5	141 ± 3
x2 = 0.399	595 ± 31	425 ± 19	308 ± 12	228 ± 8	173 ± 5	134 ± 3	106 ± 2	85 ± 1	69 ± 1	57 ± 1

— the CheMixHub ionic liquid set
